One block for each substance: values may come before it. Non-standard residues stand in square brackets, D forms with d. No end group written: not given here. β3hY = N[C@H](CC(=O)O)Cc1ccc(O)cc1; β3hK = NCCCC[C@H](N)CC(=O)O; β3hV = CC(C)[C@H](N)CC(=O)O; β3hA = C[C@H](N)CC(=O)O
Experiments:
spleenocytes = assay: Th1/Th2 cytokine levels in culture supernates of spleenocytes from treatment groups; format: cell-based, mice; settings: spleenocytes at the end of four weeks, FIG. 4; for decrease in IFN-γ levels: stimulated 48 h
Experimental: Levels of various cytokines in culture supernates were determined by sandwich ELISA using multiplex cytokine ELISA kit (Millipore). Briefly, 100 μl of cell culture supernates from various groups were incubated with antibody (against various pro and anti-inflammatory cytokines) coated fluorescent polystyrene beads in 96 well microtiter plates, stained with PE-conjugated secondary antibody, provided in the kit and samples were acquired on […] (Bio-rad).
Effect of a group of analogs comprising analogs viz.
Effect of β^3-homo amino acid containing copolymers viz S101, S102 and S103 on Th1/Th2 cytokine balance was studied in comparison to other copolymers viz. GA, J91, J92, for which culture supernates of spleenocytes grown in the presence of various copolymers, were assayed using ELISA to determine the levels of various cytokines. […] Most noteworthy change was in the levels of IL-2 in the S101, S102 and S103 treated groups, where the levels were brought down by 60-70%.

HLA DR2 = molecular target: T1, HLA DR2 (Homo sapiens, UniProt P01903+P01911); assay: Inhibition of binding of biotinylated MBP (85-99) to HLA DR2; settings: 5 μM competitor, 0.5 μM biotinylated MBP (85-99); FIG. 3
T1 construct: endogenous in cells; host or cells: MGAR lymphoblastoid B cell line (IHWG, Seattle)
T1 sequence (P01903 26-254): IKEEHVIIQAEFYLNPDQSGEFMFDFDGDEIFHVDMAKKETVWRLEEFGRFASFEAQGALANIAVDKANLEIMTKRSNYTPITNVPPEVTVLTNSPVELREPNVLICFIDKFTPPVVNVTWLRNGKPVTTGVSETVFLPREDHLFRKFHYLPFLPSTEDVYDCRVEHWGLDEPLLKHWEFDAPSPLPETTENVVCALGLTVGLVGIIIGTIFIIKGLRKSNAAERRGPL
T1 sequence (P01911 30-266): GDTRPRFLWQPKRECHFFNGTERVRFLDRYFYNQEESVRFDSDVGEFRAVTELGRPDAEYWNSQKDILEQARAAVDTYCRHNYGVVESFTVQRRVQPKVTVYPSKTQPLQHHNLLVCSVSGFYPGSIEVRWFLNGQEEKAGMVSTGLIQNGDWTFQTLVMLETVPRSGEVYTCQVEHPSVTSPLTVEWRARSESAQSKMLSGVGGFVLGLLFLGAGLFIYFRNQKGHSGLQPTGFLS
Experimental: HLA DR2 molecules were affinity purified from MGAR (a lymphoblastoid B cell line expressing HLA DR2 obtained from IHWG, Seattle, Wash. —USA) cell line. Cells were cultured in RPMI 1640 supplemented with 10% FBS, 2 mM glutamine, 50 U/ml penicillin and 50 μg/ml streptomycin. The anti-DR antibody L243 was purchased from Santacruz Biotech.
HLA DR2 was purified to a purity of 90-95% by immunoaffinity purification. Briefly, MGAR cells were detergent solubilized to prepare the membrane fraction which was passed sequentially through sepharose CL-6B, normal mouse serum-affinity-gel, Protein A sepharose CL-4B and L243-protein A sepharose-CL-4B at a flow rate of around 10-11 ml/h. The final eluate was dialyzed against 0.1% deoxycholate, 10 mM Tris-HCl (pH 8.0) and concentrated using centricon concentrators from Millipore. Protein concentration was determined using bicinchoninic acid (BCA) assay (Sigma). The obtained protein fraction was also run on SDS-PAGE gel to confirm identity and purity.
Copolymers (GA, J91, J92, S101 to S109) and peptide analogs (S1-S82) at a final concentration of 5 μM were coincubated with biotinylated MBP (85-99; purchased from Bioconcept Labs Pvt. Ltd. India) at a final concentration of 0.5 μM and HLA DR2 (0.5 μg/sample) molecules for 40 h at 37° C. and transferred to a 96-well microtiter assay plates coated with 1 μg/well purified L243 mAb. Coating of microtiter plates was performed with 100 μl of L243 mAb in PBS for 18 h at 4° C. […] 3,3′,5,5′-tetramethylbenzidine (TMB, substrate for […]) was added to each well and absorbance at 410 nm was recorded on an ELISA reader (TECAN infinite M200).
Ability of analogs viz. […] Most of the analogs designed herein viz.
β^3-homo amino acid containing copolymers viz. […] Copolymers containing β^3-homo amino acids viz.

[1] = tested on: MBP (85-109) reactive CD4+ and CD8+ T-cells; assay: Recall (proliferative) response of CD4+ and CD8+ T-cells to MBP (85-109) after pre-treatment; format: cell-based, mice
From the text: Spleen derived dendritic cells were isolated to >95% purity using plasmacytoid dendritic cell isolation kit from Miltenyi Biotech. Spleenocytes were isolated from spleen of SJL/J mice, minced and passed through a 70 micron cell strainer (BD Falcon) to get a single cell suspension. The resulting spleenocytes were first depleted of CD3+ T cells and CD 49b/pan NK+ cells using LD depletion columns provided in the kit. The CD3 and CD 49b negative cell population was collected, counted and positive selection of CD11c+ dendritic cells was performed on positive selection columns provided in the kit. The CD11c+ population was collected by removing the column from the magnetic stand, stained with trypan blue to check the viability and purity was determined using flow cytometry.
After two weeks spleenocytes were isolated, fractioned into CD4+ and CD8+ T-cells, cultured with MBP (85-109) pulsed spleen derived dendritic cells and assayed for proliferation (^3[H]-thymidine). […] As recall response to MBP (85-109) is a direct measure of frequencies of MBP (85-109) reactive CD4+ or CD8+ T-cells, in the immunized animals.

[2] = tested on: MOG (35-55) induced chronic EAE in C57BL6/J mice; assay: Prophylactic (pre-treatment) efficacy in MOG (35-55) induced chronic EAE; format: in vivo; settings: FIGS. 2j and 2k
Experimental: (§1) To induce RR EAE or chronic progressive EAE, SJL/J or C57BL6/J mice were immunized subcutaneously with 0.2 mg of MBP (85-109) or 0.1 mg MOG (35-55) emulsified in CFA and 200 ng of pertussis toxin was injected intraperitoneally on day 0 and day 2 so as to permeablize the blood brain barrier. All the animals in various experimental groups were scored daily for clinical disability on a scale of 0-6 where 0=no neurological symptoms, 1=limp tail, 2=weakness of hind limbs or ataxia, 3=incomplete paralysis of hind limbs, 4=complete paralysis of hind limbs, 5=complete paralysis of all four limbs, 6=dead. Diseased animals were provided easy access to food and water.

[3] = tested on: relapsing remitting EAE in SJL/J mice; assay: Prophylactic (pre-treatment) efficacy in relapsing remitting EAE; format: in vivo; settings: pre-treatment 0.5 mg in IFA; FIG. 2i
Experimental: as §1

[4] = tested on: MOG (35-55) induced chronic progressive EAE in C57BL6/J mice; assay: Therapeutic effect in MOG (35-55) induced chronic progressive EAE; format: in vivo; settings: daily dose of 5 mg/Kg body weight, FIGS. 2e and 2f
Experimental: as §1
Some analogs viz. […] Dosage kinetic experiments with analog S27 representing the group of analogs comprising viz.

[5] = tested on: SJL/J mice exhibiting MBP (85-109) induced relapsing remitting form of EAE; assay: Therapeutic activity in MBP (85-109) induced relapsing remitting EAE, treatment from day 11; format: in vivo; settings: for Therapeutic activity in comparison to GA (Therapeutic activity (Analogs) − Therapeutic activity GA) / Therapeutic activity in comparison to J5 (Therapeutic activity (Analogs) − Therapeutic activity (J5)) / Therapeutic activity = % reduction in cumulative clinical disability score: SJL/J mice, RR EAE; for Therapeutic activity in comparison to GA (Therapeutic activity (Analogs) − Therapeutic activity GA) / Therapeutic activity in comparison to J5 (Therapeutic activity (Analogs) − Therapeutic activity (J5)): 0.1 mg daily for two weeks
Procedure, shortened: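 Female SJL/J mice, 8-10 weeks, immunized s.c. with 0.2 mg MBP (85-109) in CFA plus 200 ng pertussis toxin i.p. on days 0 and 2. Treatment ran from day 11 for two weeks. Clinical disability was scored daily on a 0-6 scale.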

[6] = in vivo; cited from earlier work
[7] = synthetic peptides, 0.1 mg daily for two weeks from day 11 post-immunization

Substance: Kβ^3Vβ^3Eβ^3Aβ^3Yβ^3Kβ^3Aβ^3Aβ^3Aβ^3Aβ^3 ([β3hK][β3hV]X[β3hA][β3hY][β3hK][β3hA][β3hA][β3hA][β3hA]; not fully specified (residue 3); printed as Kβ^3Vβ^3Eβ^3Aβ^3Yβ^3Kβ^3Aβ^3Aβ^3Aβ^3Aβ^3) [Analog S27]
- decrease in IFN-γ levels (spleenocytes): approximately 70%
- change in IL-4 levels (spleenocytes): only a marginal increase
- inhibition of binding of biotinylated MBP (85-99) to HLA DR2 (HLA DR2): approximately 60%
- recall response to MBP (85-109), CD4+ T-cell fraction (3[H]-thymidine proliferation) ([1]; 0.5 mg in IFA a day before immunization, spleenocytes after two weeks, FIG. 1a): considerable suppression
- recall response to MBP (85-109), CD8+ T-cell fraction, suppression compared to J5 or GA treated group ([1]; 0.5 mg in IFA a day before immunization, spleenocytes after two weeks, FIG. 1b): much more pronounced
- recall response to purified protein derivative (PPD) ([1]; specificity control antigen, FIGS. 1a and b): remained unaffected
- suppression after pre-treatment [2]: 55-60%
- delay of clinical onset of disease [3]: ~3 days
- reduction in clinical disability score [4]: ~60%
- duration of effect once the treatment is stopped ([5]; FIG. 2b): up to two weeks
- Therapeutic activity in comparison to GA (Therapeutic activity (Analogs) − Therapeutic activity GA) [5]: 33.8%
- Therapeutic activity in comparison to J5 (Therapeutic activity (Analogs) − Therapeutic activity (J5)) [5]: 29.84%
- efficacy relative to GA ([5]; both treatment and pre-treatment scenarios): approximately two times better
- optimum daily dosage ([5]; dosage kinetic experiments, rodents, FIGS. 2c and 2d): 5 mg/kg body weight
- Therapeutic activity = % reduction in cumulative clinical disability score [5, 7]: 65.13%

- inhibition of binding of biotinylated MBP (85-99) to HLA DR2 (HLA DR2): ~21%
Substance: Glatiramer Acetate [GA, reference compound]
- decrease in IFN-γ levels (spleenocytes): approximately 70%
- rise in IL-4 levels (spleenocytes): ~2 fold
- success rate in reducing the relapses [6]: 30%
- effect on clinical onset of disease [3]: no effect on clinical onset of disease
- Therapeutic activity in comparison to GA (Therapeutic activity (Analogs) − Therapeutic activity GA) [5]: 0%
- Therapeutic activity in comparison to J5 (Therapeutic activity (Analogs) − Therapeutic activity (J5)) [5]: −3.957%
- Therapeutic activity = % reduction in cumulative clinical disability score ([5]; amino acid copolymers, 0.1 mg daily for two weeks from day 11): 27.12%
- Therapeutic activity = % reduction in cumulative clinical disability score [5, 7]: 31.3369%

— US20140348861A1, “SYNTHETIC PEPTIDES AND RANDOM COPOLYMERS FOR THE TREATMENT OF AUTOIMMUNE DISORDERS” (NATIONAL INSTITUTE OF IMMUNOLOGY, priority 2011, published 2014)
